Structures are written as SMILES.

This assay concerns the target T1, Aromatase (Homo sapiens, UniProt P11511).
T1 sequence (P11511 whole entry): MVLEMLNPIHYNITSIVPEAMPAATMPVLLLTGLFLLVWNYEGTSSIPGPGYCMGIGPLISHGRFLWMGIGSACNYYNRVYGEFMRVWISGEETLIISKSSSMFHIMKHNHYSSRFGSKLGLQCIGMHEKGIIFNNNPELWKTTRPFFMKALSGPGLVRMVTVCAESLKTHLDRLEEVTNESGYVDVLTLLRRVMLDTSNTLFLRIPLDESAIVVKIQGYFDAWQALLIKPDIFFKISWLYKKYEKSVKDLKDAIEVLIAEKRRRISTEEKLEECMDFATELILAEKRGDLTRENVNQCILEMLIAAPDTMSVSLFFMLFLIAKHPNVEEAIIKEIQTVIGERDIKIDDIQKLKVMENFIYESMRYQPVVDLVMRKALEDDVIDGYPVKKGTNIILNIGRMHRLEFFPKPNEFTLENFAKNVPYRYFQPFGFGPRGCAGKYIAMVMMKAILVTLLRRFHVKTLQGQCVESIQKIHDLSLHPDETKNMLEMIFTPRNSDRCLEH
A word on the IC50: it is the concentration at which inhibition is half-maximal. Low values mean inhibition by little substance, high ones a need for much substance. The compound `C[C@]12CC[C@H](O)C[C@@H]1CC[C@@H]1[C@@H]2CC[C@]2(C)C3=NN[C@H](c4ccccc4)[C@H]3C[C@@H]12` gave a 50% inhibitory concentration (IC50) of 6900 nM.

Compound `CCCCO[C@@H]1C[C@@H]2[C@H](CC[C@]3(C)C(=O)CC[C@@H]23)[C@@]2(C)CCC(=O)C=C12` gave an IC50 of 420 nM.

Compound `CC1(C)C[C@@]2(CO)C(=CC1=O)CC[C@@H]1[C@@H]2CC[C@]2(C)C(=O)CC[C@@H]12` gave an IC50 of 5110 nM.

Consider `COc1ccc([C@@H]2[C@H]3C[C@H]4[C@@H]5CC[C@H]6C[C@@H](OC(=O)C(F)(F)F)CC[C@]6(C)[C@H]5CC[C@]4(C)C3=NN2c2ccccc2)cc1`, for which the midpoint of inhibition, the IC50, lay at 5450 nM.

`C[C@]12CC[C@H](O)C[C@@H]1CC[C@@H]1[C@@H]2CC[C@]2(C)C3=NN(c4ccccc4)[C@H](c4ccccc4)[C@H]3C[C@@H]12` showed an IC50 of 6010 nM.

In the case of `C[C@]12C=CC(=O)C=C1CC[C@@H]1[C@@H]2CC[C@]2(C)C(=O)C(Br)C[C@@H]12` (some centres not stated), it took 13200 nM to reach half-maximal inhibition (IC50).

`COc1ccc([C@@H]2[C@H]3C[C@H]4[C@@H]5CC[C@H]6C[C@@H](O)CC[C@]6(C)[C@H]5CC[C@]4(C)C3=NN2C)cc1` showed an IC50 of 6120 nM.

Compound `CCCCO[C@H]1C[C@@H]2[C@H](CC[C@]3(C)C(=O)CC[C@@H]23)[C@@]2(C)C=CC(=O)C=C12` showed a 50% inhibitory concentration (IC50) of 661 nM.

As to `C[C@]12CC[C@@H]3C4CCC(=O)C=C4C(=O)C[C@H]3[C@@H]1CCC2=O` (some centres not stated), half-maximal inhibition (IC50) was put at 12000 nM.

As to `C[C@]12CCC(=O)C(SCCl)=C1CC[C@@H]1C2=CC[C@]2(C)C(=O)CC[C@@H]12`, the midpoint of inhibition, the IC50, lay at 859 nM.

`C[C@]12C=CC(=O)C=C1C=C(c1ccccc1)[C@@H]1[C@@H]2CC[C@]2(C)C(=O)CC[C@@H]12` gave a concentration for half-maximal inhibition (IC50) of 2220 nM.

`CCCCCCCC(=O)O[C@H]1C[C@@H]2[C@H](CC[C@]3(C)C(=O)CC[C@@H]23)[C@@]2(C)CCC(=O)C=C12` showed an IC50 of 150 nM.

The compound `CC(=O)O[C@H]1C[C@@H]2[C@H](CC[C@]3(C)C(=O)CC[C@@H]23)[C@@]2(C)C=CC(=O)C=C12` showed an IC50 of 1100 nM.

As to `C[C@]12C=CC(=O)C=C1CC[C@@H]1[C@@H]2CC[C@]2(C)C3=NN[C@H](c4ccccc4)[C@H]3C[C@@H]12`, the IC50 is 3010 nM.

In turn, `C[C@]12CCC(=O)C=C1[C@H](OCc1ccccc1)C[C@@H]1[C@@H]2CC[C@]2(C)C(=O)CC[C@@H]12` gave an IC50 of 84.9 nM.

In the case of `CCCCCC(=O)O[C@@H]1C[C@@H]2[C@H](CC[C@]3(C)C(=O)CC[C@@H]23)[C@@]2(C)CCC(=O)C=C12`, it took 530 nM to reach half-maximal inhibition (IC50).

For `COc1ccc([C@H]2NN=C3[C@@H]2C[C@H]2[C@@H]4CCC5=CC(=O)C=C[C@]5(C)[C@H]4CC[C@]32C)cc1`, half-maximal inhibition (IC50) was put at 2910 nM.

`CCCO[C@@H]1C[C@@H]2[C@H](CC[C@]3(C)C(=O)CC[C@@H]23)[C@@]2(C)CCC(=O)C=C12` showed a half-inhibitory concentration (IC50) of 550 nM.

In turn, `CCO[C@@H]1C[C@@]2(C)C(=CC1=O)CC[C@@H]1[C@@H]2CC[C@]2(C)C(=O)CC[C@@H]12` gave a concentration for half-maximal inhibition (IC50) of 11800 nM.

The compound `C[C@]12C=CC(=O)C=C1C[C@@H](CCc1ccc(N)cc1)[C@@H]1[C@@H]2CC[C@]2(C)C(=O)CC[C@@H]12` showed an IC50 of 18.7 nM.

`CO[C@H]1C[C@@H]2[C@H](CC[C@]3(C)C(=O)CC[C@@H]23)[C@@]2(C)C=CC(=O)C=C12`: the half-inhibitory concentration (IC50) is 440 nM.

As for `CCC(=O)N1N=C2[C@H](C[C@H]3[C@@H]4CC[C@H]5C[C@@H](OC(=O)C(F)(F)F)CC[C@]5(C)[C@H]4CC[C@]23C)[C@H]1c1ccccc1`, it took 6710 nM to reach half-maximal inhibition (IC50).

In turn, `CN1N=C2[C@H](C[C@H]3[C@@H]4CC[C@H]5CC(=O)CC[C@]5(C)[C@H]4CC[C@]23C)[C@H]1c1ccccc1` had an IC50 of 4780 nM.

`CCO[C@@H]1C[C@@H]2[C@H](CC[C@]3(C)C(=O)CC[C@@H]23)[C@@]2(C)CCC(=O)C=C12`: the IC50 is 500 nM.

Compound `C[C@]12CCC(=O)C=C1CC[C@@H]1[C@@H]2CC[C@]2(C)C(=O)C(Br)C[C@@H]12` (some centres not stated) had an IC50 of 2650 nM.

Compound `CCCCCC(=O)O[C@H]1C[C@@H]2[C@H](CC[C@]3(C)C(=O)CC[C@@H]23)[C@@]2(C)CCC(=O)C=C12` had an IC50 of 87.9 nM.

On to `COC1=C[C@@H]2[C@H](CC[C@]3(C)C(=O)CC[C@@H]23)[C@@]2(C)C=CC(=O)C=C12`, for which it took 800 nM to reach half-maximal inhibition (IC50).

With `COc1ccc([C@@H]2[C@H]3C[C@H]4[C@@H]5CC[C@H]6C[C@@H](OC(=O)C(F)(F)F)CC[C@]6(C)[C@H]5CC[C@]4(C)C3=NN2C(C)=O)cc1`, half-maximal inhibition (IC50) was put at 6460 nM.

`C[C@]12C=CC(=O)C=C1[C@H](Oc1ccccc1)C[C@@H]1[C@@H]2CC[C@]2(C)C(=O)CC[C@@H]12` gave a half-inhibitory concentration (IC50) of 16000 nM.

In the case of `CO[C@@H]1C[C@@H]2[C@H](CC[C@]3(C)C(=O)CC[C@@H]23)[C@@]2(C)C=CC(=O)C=C12`, half-maximal inhibition (IC50) required 619 nM.

On to `C[C@]12CCC(=O)C=C1[C@@H](OCc1ccccc1)C[C@@H]1[C@@H]2CC[C@]2(C)C(=O)CC[C@@H]12`, for which the half-maximal inhibitory concentration (IC50) is 2500 nM.

In the case of `CC(=O)N1N=C2[C@H](C[C@H]3[C@@H]4CC[C@H]5C[C@@H](OC(=O)C(F)(F)F)CC[C@]5(C)[C@H]4CC[C@]23C)[C@H]1c1ccccc1`, the IC50 was 6580 nM.

Consider `C[C@]12C=CC(=O)C=C1C[C@@H](CCc1ccc([N+](=O)[O-])cc1)[C@@H]1[C@@H]2CC[C@]2(C)C(=O)CC[C@@H]12`, for which the IC50 is 14.9 nM.

`C[C@]12CCC(=O)C[C@@H]1CC[C@@H]1[C@@H]2CC[C@]2(C)C3=NN(c4ccccc4)[C@H](c4ccccc4)[C@H]3C[C@@H]12` showed an IC50 of 4270 nM.

In the case of `CCC(=O)O[C@@H]1C[C@@H]2[C@H](CC[C@]3(C)C(=O)CC[C@@H]23)[C@@]2(C)CCC(=O)C=C12`, the IC50 was 2200 nM.

As to `CC(=O)O[C@@H]1C[C@@H]2[C@H](CC[C@]3(C)C(=O)CC[C@@H]23)[C@@]2(C)C=CC(=O)C=C12`, the IC50 was 5000 nM.

`CC1(C)C[C@@]2(C=O)C(=CC1=O)CC[C@@H]1[C@@H]2CC[C@]2(C)C(=O)CC[C@@H]12` had an IC50 of 600 nM.

In turn, `C[C@]12CCC(=O)C[C@@H]1CC[C@@H]1[C@@H]2CC[C@]2(C)C3=NN[C@H](c4ccccc4)[C@H]3C[C@@H]12` registered an IC50 of 5240 nM.

`C[C@]12C[C@@H](O)C(=O)C=C1CC[C@@H]1[C@@H]2CC[C@]2(C)C(=O)CC[C@@H]12`: half-maximal inhibition (IC50) was put at 15300 nM.

As for `C[C@]12CCC(=O)C(O)=C1CC[C@@H]1C2=CC[C@]2(C)C(=O)CC[C@@H]12`, the half-maximal inhibitory concentration (IC50) was 350 nM.

Consider `C[C@@H]1C[C@@]2(C=O)C(=CC1=O)CC[C@@H]1[C@@H]2CC[C@]2(C)C(=O)CC[C@@H]12`, for which the half-inhibitory concentration (IC50) is 12000 nM.

Compound `CCCC(=O)O[C@H]1C[C@@H]2[C@H](CC[C@]3(C)C(=O)CC[C@@H]23)[C@@]2(C)CCC(=O)C=C12` had an IC50 of 200 nM.

For the origin of these results see ChEMBL document CHEMBL5241054, “Effective anti-aromatase therapy to battle against estrogen-mediated breast cancer: Comparative SAR/QSAR assessment on steroidal aromatase inhibitors” (Eur J Med Chem, 2020).
